According to patent US20040157738A1, “Novel oxygen containing fused cyclic derivatives and herbicidal, desiccant and defoliate compositions containing them” (ISHIHARA SANGYO KAISHA, LTD., priority 2003, published 2004):

Experiments:
Format in all cases: in vivo
[1] = system: common cocklebur (Xanthium strumarium L.), XANST; assay: Test Example 2: post-emergence (foliage treatment) herbicidal activity (growth controlling degree); settings: Xanthium strumarium, 504 h, 0.2-0.6 leaf stage; for pest or weed control at 63 g/ha: 63 g a.i./ha; for pest or weed control at 31 g/ha: 31 g a.i./ha
Source text: (§1) Upland field soil was put into a 1/170,000 ha pot, and seeds of various plants were sown. Then, when the plants reached predetermined leaf stages [I. barnyardgrass (Echinochloa crus-galli L.), ECHCG: 1.8-2.4 leaf stage, 2. crabgrass (Digitaria sanguinalis L.), DIGSA: 1.5-2.2 leaf stage, 3. green foxtail (Setaria viridis L.), SETVI: 1.7-2.5 leaf stage, 4. redroot pigweed (Amaranthus retroflexus L.), AMARE: 0.1-0.3 leaf stage, 5. prickly sida (Sida spinosa L.), SIDSP: 0.3-0.5 leaf stage, 6. velvetleaf (Abutilon theophrasti), ABUTH: 0.3-0.4 leaf stage, 7. common cocklebur (Xanthium strumarium L.), XANST: 0.2-0.6 leaf stage, 8. rice (Oryza sativa L.), ORYSA: 1.6-2.2 leaf stage, 9. wheat (Triticum aestivum L.), TRZAX: 2.8 leaf stage, 10. corn (Zea mays L.), ZEAMX: 2.2-2.5 leaf stage, 11. soybean (Glycine max Merr.), GLXMA: 0.2-0.3 leaf stage], a wettable powder or emulsifiable concentrate having the compound of the present invention formulated in accordance with a usual formulation method, was weighed so that the active ingredient would be a predetermined amount, and diluted with water in an amount of 500 L/ha. To the diluted solution, 0.1%(v/v) of an agricultural spreader was added. The herbicide adjusted was applied by a small size sprayer for foliage treatment. On the […] day after the application of the herbicide, the growth of the respective plants was visually observed, and the herbicidal effects were evaluated by growth controlling degrees (%) ranging from 0 (equivalent to the untreated control) to 100 (complete kill), whereby the results shown in Table 12, were obtained. Compound Nos. in Table 12 correspond to Compound Nos. in Table 1 to 7 given hereinbefore.

[2] = system: redroot pigweed (Amaranthus retroflexus L.), AMARE; assay: as above; settings: 0.1-0.3 leaf stage
Source text: as §1

[3] = system: barnyardgrass (Echinochloa crus-galli L.), ECHCG; assay: as above; settings: Echinochloa crus-galli, 504 h, 1.8-2.4 leaf stage; for pest or weed control at 63 g/ha: 63 g a.i./ha; for pest or weed control at 31 g/ha: 31 g a.i./ha
Source text: as §1

[4] = system: soybean (Glycine max Merr.), GLXMA; assay: as above; settings: Glycine max, 504 h, 0.2-0.3 leaf stage; for pest or weed control at 63 g/ha: 63 g a.i./ha; for pest or weed control at 31 g/ha: 31 g a.i./ha
Source text: as §1

[5] = system: prickly sida (Sida spinosa L.), SIDSP; assay: as above; settings: Sida spinosa, 504 h, 0.3-0.5 leaf stage; for pest or weed control at 63 g/ha: 63 g a.i./ha; for pest or weed control at 31 g/ha: 31 g a.i./ha
Source text: as §1

[6] = system: velvetleaf (Abutilon theophrasti), ABUTH; assay: as above; settings: Abutilon theophrasti, 504 h, 0.3-0.4 leaf stage; for pest or weed control at 63 g/ha: 63 g a.i./ha; for pest or weed control at 31 g/ha: 31 g a.i./ha
Source text: as §1

[7] = system: rice (Oryza sativa L.), ORYSA; assay: as above; settings: Oryza sativa, 504 h, 1.6-2.2 leaf stage; for plant injury at 63 g/ha: 63 g a.i./ha; for plant injury at 31 g/ha: 31 g a.i./ha
Source text: as §1

[8] = system: corn (Zea mays L.), ZEAMX; assay: as above; settings: Zea mays, 504 h, 2.2-2.5 leaf stage; for plant injury at 63 g/ha: 63 g a.i./ha; for plant injury at 31 g/ha: 31 g a.i./ha
Source text: as §1

[9] = system: green foxtail (Setaria viridis L.), SETVI; assay: as above; settings: Setaria viridis, 504 h, 1.7-2.5 leaf stage; for pest or weed control at 63 g/ha: 63 g a.i./ha; for pest or weed control at 31 g/ha: 31 g a.i./ha
Source text: as §1

[10] = system: crabgrass (Digitaria sanguinalis L.), DIGSA; assay: as above; settings: Digitaria sanguinalis, 504 h, 1.5-2.2 leaf stage, read-out: growth controlling degree, DIGSP; for pest or weed control at 63 g/ha: 63 g a.i./ha; for pest or weed control at 31 g/ha: 31 g a.i./ha
Source text: as §1

[11] = system: corn (Zea mays L.): ZEAMX; assay: Test Example 1: pre-emergence herbicidal activity (growth controlling degree); settings: 20th to 21st day after application
Source text: (§2) Upland field soil was put into a 1/170,000 ha pot, and seeds of various plants [1. barnyardgrass (Echinochloa crus-galli L.): ECHCC, 2. crabgrass (Digitaria sanguinalis L.): DIGSA, 3. green foxtail (Setaria viridis L.): SETVI, 4. redroot pigweed (Amaranthus retroflexus L.): AMARE, 5. prickly sida (Sida spinosa L.): SIDSP, 6. velvetleaf (Abutilon theophrasti): ABUTH, 7. common cocklebur (Xanthium strumarium L.): XANST, 8. rice (Oryza sativa L.): ORYSA, 9. wheat (Triticum aestivum L.): TRZAX, 10. corn (Zea mays L.): ZEAMX, 11. soybean (Glycine max Merr.): GLXMA] were sown. Then, one day after the sowing, a wettable powder or emulsifiable concentrate having the compound of the present invention formulated in accordance with a usual formulation method, was weighed so that the active ingredient would be a predetermined amount, and diluted with water in an amount of 500 L/ha. The herbicide adjusted was applied by a small size sprayer for pre-emergence treatment. On the 20th to 21st day after the application of the herbicide, the growth of the respective plants was visually observed, and the herbicidal effects were evaluated by growth controlling degrees (%) ranging from 0 (equivalent to the untreated control) to 100 (complete kill), whereby the results shown in Table 11, were obtained. Compound Nos. in Table 11 correspond to Compound Nos. in Table 1 to 7 given hereinbefore.

[12] = system: rice (Oryza sativa L.): ORYSA; assay: as above; settings: 20th to 21st day after application
Source text: as §2

[13] = system: prickly sida (Sida spinosa L.): SIDSP; assay: as above; settings: 20th to 21st day after application
Source text: as §2

[14] = system: velvetleaf (Abutilon theophrasti): ABUTH; assay: as above; settings: 20th to 21st day after application
Source text: as §2

[15] = system: common cocklebur (Xanthium strumarium L.): XANST; assay: as above; settings: 20th to 21st day after application
Source text: as §2

[16] = system: barnyardgrass (Echinochloa crus-galli L.): ECHCC; assay: as above; settings: 20th to 21st day after application
Source text: as §2

[17] = system: green foxtail (Setaria viridis L.): SETVI; assay: as above; settings: 20th to 21st day after application
Source text: as §2

[18] = system: crabgrass (Digitaria sanguinalis L.): DIGSA; assay: as above; settings: 20th to 21st day after application
Source text: as §2

[19] = system: redroot pigweed (Amaranthus retroflexus L.): AMARE; assay: as above; settings: 20th to 21st day after application
Source text: as §2

[20] = system: soybean (Glycine max Merr.): GLXMA; assay: as above; settings: 20th to 21st day after application
Source text: as §2

Row | SMILES | pest or weed control at 63 g/ha [1] | growth controlling degree, AMARE ([2]; 63 g a.i./ha) | pest or weed control at 63 g/ha [3] | pest or weed control at 63 g/ha [4] | pest or weed control at 63 g/ha [5] | pest or weed control at 63 g/ha [6] | plant injury at 63 g/ha [7] | plant injury at 63 g/ha [8] | pest or weed control at 63 g/ha [9] | pest or weed control at 63 g/ha [10] | growth controlling degree, ZEAMX ([11]; 250 g a.i./ha) | growth controlling degree, ORYSA ([12]; 250 g a.i./ha) | growth controlling degree, SIDSP ([13]; 250 g a.i./ha) | growth controlling degree, ABUTH ([14]; 250 g a.i./ha) | growth controlling degree, XANST ([15]; 250 g a.i./ha) | growth controlling degree, ECHCG ([16]; 250 g a.i./ha) | growth controlling degree, SETVI ([17]; 250 g a.i./ha) | growth controlling degree, DIGSP ([18]; 250 g a.i./ha) | growth controlling degree, AMARE ([19]; 250 g a.i./ha) | growth controlling degree, GLXMA ([20]; 250 g a.i./ha) | other results
1 | Cn1nc(-c2c(F)cc(Cl)c3c2CCCO3)c(Cl)c1OC(F)F [Compound 1-33, 4-chloro-3-(8-chloro-6-fluoro-3,4-dihydro-2H-1-benzopyran-5-yl)-5-(difluoromethoxy)-1-methyl-1H-pyrazole] | 100% | 100% | 100% | 100% | 100% | 100% | 98% | 100% | 100% | 100% |  |  |  |  |  |  |  |  |  |  | growth controlling degree, ZEAMX ([11]; 125 g a.i./ha): 100%; growth controlling degree, ORYSA ([12]; 125 g a.i./ha): 70%; growth controlling degree, SIDSP ([13]; 125 g a.i./ha): 100%; growth controlling degree, ABUTH ([14]; 125 g a.i./ha): 100%; growth controlling degree, XANST ([15]; 125 g a.i./ha): 70%; growth controlling degree, ECHCG ([16]; 125 g a.i./ha): 100%; growth controlling degree, SETVI ([17]; 125 g a.i./ha): 100%; growth controlling degree, DIGSP ([18]; 125 g a.i./ha): 100%; growth controlling degree, AMARE ([19]; 125 g a.i./ha): 100%; growth controlling degree, GLXMA ([20]; 125 g a.i./ha): 40%
2 | Cn1nc(-c2c(F)cc(Cl)c3c2CCC(c2ccccc2)O3)c(Cl)c1OC(F)F (stereo not drawn) [Compound 1-42] | 100% | 100% | 60% | 60% | 100% | 100% | 70% | 30% | 98% | 50% | 10% | 40% | 80% | 50% | 0% | 100% | 100% | 100% | 100% | 10% | 
3 | Fc1cc(Cl)c2c(c1-c1nn3c(c1Cl)CCCC3)CCCO2 [Compound 1-79, 3-chloro-2-(8-chloro-6-fluoro-3,4-dihydro-2H-1-benzopyran-5-yl)-4,5,6,7-tetrahydro-pyrazolo[1,5-a]pyridine] |  |  |  |  |  |  |  |  |  |  | 10% | 30% | 80% | 60% |  | 100% |  |  | 100% | 30% | pest or weed control at 31 g/ha [1]: 100%; growth controlling degree, AMARE ([2]; 31 g a.i./ha): 90%; pest or weed control at 31 g/ha [3]: 95%; pest or weed control at 31 g/ha [4]: 70%; pest or weed control at 31 g/ha [5]: 98%; pest or weed control at 31 g/ha [6]: 100%; plant injury at 31 g/ha [7]: 50%; plant injury at 31 g/ha [8]: 50%; pest or weed control at 31 g/ha [9]: 100%; pest or weed control at 31 g/ha [10]: 40%
4 | CC1CCc2c(c(Cl)cc(F)c2-c2nn(C)c(C(F)(F)F)c2Cl)O1 (stereo not drawn) [Compound 1-8] |  |  |  |  |  |  |  |  |  |  | 10% | 20% | 98% | 100% | 10% | 50% | 95% | 98% | 100% | 10% | pest or weed control at 31 g/ha [1]: 70%; growth controlling degree, AMARE ([2]; 31 g a.i./ha): 95%; pest or weed control at 31 g/ha [3]: 0%; pest or weed control at 31 g/ha [4]: 40%; pest or weed control at 31 g/ha [5]: 80%; pest or weed control at 31 g/ha [6]: 100%; plant injury at 31 g/ha [7]: 40%; plant injury at 31 g/ha [8]: 50%; pest or weed control at 31 g/ha [9]: 30%; pest or weed control at 31 g/ha [10]: 10%
5 | Fc1cc(Cl)c2c(c1-c1ncc(C(F)(F)F)cc1Cl)CCCO2 [Compound 7-2, 3-chloro-2-(8-chloro-6-fluoro-3,4-dihydro-2H-1-benzopyran-5-yl)-5-(trifluoromethyl)-pyridine] | 70% |  | 80% | 60% | 100% | 100% | 60% | 90% | 100% | 95% | 60% | 50% | 100% | 100% | 50% | 100% | 100% | 100% | 100% | 50% | 
